The target of this test is T1, human IL-17AA (Homo sapiens, UniProt Q16552).
T1 construct: host or cells: HEK (human embryonic kidney) cells
T1 sequence (Q16552 24-155): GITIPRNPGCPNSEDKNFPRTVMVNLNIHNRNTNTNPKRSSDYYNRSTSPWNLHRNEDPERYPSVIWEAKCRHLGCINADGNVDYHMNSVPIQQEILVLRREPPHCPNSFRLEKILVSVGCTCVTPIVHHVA
Briefly: IL-8 release assay in human epithelial keratinocytes adult (HEKa). It is filed as cell-based. The conditions noted are these: HEKa cells, 3 ng/mL HEK-human IL-17AA + 10 ng/mL human TNFalpha; read-out: Rel EC50 IL-8 release assay. Put shortly: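 IL-8 release, quantified by HTRF and normalized to controls, reports IL-17 signaling in HEKa cells treated with compound plus final 3 ng/mL IL-17AA (HEK-derived) and 10 ng/mL TNF-alpha for 68-72 h; TNF-alpha-only wells set 100% inhibition. Four-parameter logistic fits (r^2>0.9) give relative IC50 and Emax; PrestoBlue flags cytotoxicity.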
For the compound `Cc1n[nH]c(C)c1-c1ccc(NC(=O)[C@@H](NC(=O)c2ccnn2C)[C@@H]2CCc3ccccc32)cc1` [Example 76, N-[(1S)-2-[4-(3,5-dimethyl-1H-pyrazol-4-yl)anilino]-1-[(1R)-indan-1-yl]-2-oxo-ethyl]-2-methyl-pyrazole-3-carboxamide], the EC50 fell in the range of 0.1 to 1 µM.
For the compound `Cc1n[nH]c(C)c1-c1ccc(NC(=O)[C@@H](NC(=O)c2ccnn2C)[C@@H]2CCc3ccc(Cl)cc32)cc1` [Example 77, N-[(1S)-1-[(1R)-6-chloroindan-1-yl]-2-[4-(3,5-dimethyl-1H-pyrazol-4-yl)anilino]-2-oxo-ethyl]-2-methyl-pyrazole-3-carboxamide], the EC50 lay within 0.1 to 1 µM.
`Cc1n[nH]c(C)c1-c1ccc(NC(=O)[C@@H](NC(=O)c2ccnn2C)[C@@H]2CCc3ccc(C#N)cc32)cc1` [Example 78, N-[(1S)-1-[(1R)-6-cyanoindan-1-yl]-2-[4-(3,5-dimethyl-1H-pyrazol-4-yl)anilino]-2-oxo-ethyl]-2-methyl-pyrazole-3-carboxamide]: the half-maximal effective concentration (EC50) is > 1 µM.
As for `Cc1n[nH]c(C)c1-c1ccc(NC(=O)[C@@H](NC(=O)c2ccnn2C)[C@H]2CCc3ccccc32)cc1` [Example 79, N-[(1S)-2-[4-(3,5-dimethyl-1H-pyrazol-4-yl)anilino]-1-[(1S)-indan-1-yl]-2-oxo-ethyl]-2-methyl-pyrazole-3-carboxamide], the figure is < 0.1 µM; as for `Cc1n[nH]c(C)c1-c1ccc(NC(=O)[C@@H](NC(=O)c2ccnn2C)[C@H]2CCc3ccc(C#N)cc32)cc1` [Example 80, N-[(1S)-1-[(1S)-6-cyanoindan-1-yl]-2-[4-(3,5-dimethyl-1H-pyrazol-4-yl)anilino]-2-oxo-ethyl]-2-methyl-pyrazole-3-carboxamide], 0.1 to 1 µM; as for `Cc1n[nH]c(C)c1-c1ccc(NC(=O)[C@@H](NC(=O)c2ccnn2C)[C@H]2CCCc3ccccc32)cc1` [Example 81, N-[(1S)-2-[4-(3,5-dimethyl-1H-pyrazol-4-yl)anilino]-2-oxo-1-[(1S)-tetralin-1-yl]ethyl]-2-methyl-pyrazole-3-carboxamide], < 0.1 µM.
As to `Cc1n[nH]c(C)c1-c1ccc(NC(=O)[C@@H](NC(=O)c2ccnn2C)[C@H]2CCCc3ccc(C#N)cc32)cc1` [Example 82, N-[(1S)-1-[(1S)-7-cyanotetralin-1-yl]-2-[4-(3,5-dimethyl-1H-pyrazol-4-yl)anilino]-2-oxo-ethyl]-2-methyl-pyrazole-3-carboxamide], the EC50 was in the range of 0.1 to 1 µM.
On to `Cc1ncn(C)c1-c1ccc(NC(=O)[C@@H](NC(=O)OC(C)(C)C)C2CCCCC2)cc1` [Example 83, tert-butyl N-[(1S)-1-cyclohexyl-2-[4-(3,5-dimethylimidazol-4-yl)anilino]-2-oxo-ethyl]carbamate], for which the EC50 lay in the range of 0.1 to 1 µM.
Under `Cc1ncn(C)c1-c1ccc(NC(=O)C(NC(=O)OC(C)(C)C)C(C2CC2)C2CC2)cc1` (stereo not shown) [Example 84, tert-butyl N-[1-(dicyclopropylmethyl)-2-[4-(3,5-dimethylimidazol-4-yl)anilino]-2-oxo-ethyl]carbamate] stands 0.1 to 1 µM.
In the case of `Cc1ncn(C)c1-c1ccc(NC(=O)[C@@H](NC(=O)OC(C)(C)C)C2CCCC2)cc1` [Example 87, tert-butyl N-[(1S)-1-cyclopentyl-2-[4-(3,5-dimethylimidazol-4-yl)anilino]-2-oxo-ethyl]carbamate], the half-maximal effective concentration (EC50) was > 1 µM.
Turning to `Cc1ncn(C)c1-c1ccc(NC(=O)[C@@H](NC(=O)OC(C)(C)C)C2CCCCCC2)cc1` [Example 88, tert-butyl N-[(1S)-1-cycloheptyl-2-[4-(3,5-dimethylimidazol-4-yl)anilino]-2-oxo-ethyl]carbamate], the EC50 lay in the range of 0.1 to 1 µM.
Under `CCC(CC)[C@H](NC(=O)OC(C)(C)C)C(=O)Nc1ccc(-c2c(C)ncn2C)cc1` [Example 89, tert-butyl N-[(1S)-1-[[4-(3,5-dimethylimidazol-4-yl)phenyl]carbamoyl]-2-ethyl-butyl]carbamate] stands > 1 µM; under `CC(C)[C@H](NC(=O)OC(C)(C)C)C(=O)Nc1ccc(-c2cncn2C)cc1` [Example 91, tert-butyl N-[(1S)-2-methyl-1-[[4-(3-methylimidazol-4-yl)phenyl]carbamoyl]propyl] carbamate], > 1 µM; under `Cn1cncc1-c1ccc(NC(=O)[C@@H](NC(=O)OC(C)(C)C)C2CCC2)cc1` [Example 92, tert-butyl N-[(1S)-1-cyclobutyl-2-[4-(3-methylimidazol-4-yl)anilino]-2-oxo-ethyl]carbamate], > 1 µM.
For the compound `Cn1cncc1-c1ccc(NC(=O)[C@H](CC2CCCCC2)NC(=O)OC(C)(C)C)cc1` [Example 93, tert-butyl N-[(1S)-1-(cyclohexylmethyl)-2-[4-(3-methylimidazol-4-yl)anilino]-2-oxo-ethyl]carbamate], the EC50 was > 1 µM.
As for `CCC(C)[C@H](NC(=O)OC(C)(C)C)C(=O)Nc1ccc(-c2cncn2C)cc1` (stereo partly drawn) [Example 94, tert-butyl N-[(1S)-2-methyl-1-[[4-(3-methylimidazol-4-yl)phenyl]carbamoyl]butyl] carbamate], the figure is > 1 µM.
For `Cn1cncc1-c1ccc(NC(=O)[C@H](Cc2ccccc2)NC(=O)OC(C)(C)C)cc1` [Example 95, tert-butyl N-[(1S)-1-benzyl-2-[4-(3-methylimidazol-4-yl)anilino]-2-oxo-ethyl]carbamate], the EC50 is > 1 µM.
For the compound `CC(C)C[C@H](NC(=O)OC(C)(C)C)C(=O)Nc1ccc(-c2cncn2C)cc1` [Example 96, tert-butyl N-[(1S)-3-methyl-1-[[4-(3-methylimidazol-4-yl)phenyl]carbamoyl]butyl] carbamate], the EC50 was > 1 µM.
On to `Cn1cncc1-c1ccc(NC(=O)[C@H](Cc2ccccc2Cl)NC(=O)OC(C)(C)C)cc1` [Example 97, tert-butyl N-[(1S)-1-[(2-chlorophenyl)methyl]-2-[4-(3-methylimidazol-4-yl)anilino]-2-oxo-ethyl]carbamate], for which the concentration for a half-maximal effect (EC50) is > 1 µM.
On to `Cn1cncc1-c1ccc(NC(=O)[C@@H](NC(=O)OC(C)(C)C)C2CCCC2)cc1` [Example 98, tert-butyl N-[(1S)-1-cyclopentyl-2-[4-(3-methylimidazol-4-yl)anilino]-2-oxo-ethyl]carbamate], for which the EC50 was > 1 µM.
Under `Cn1cncc1-c1ccc(NC(=O)[C@@H](NC(=O)OC(C)(C)C)C2Cc3ccccc3C2)cc1` [Example 99, tert-butyl N-[(1S)-1-indan-2-yl-2-[4-(3-methylimidazol-4-yl)anilino]-2-oxo-ethyl]carbamate] stands > 1 µM.
`Cn1cncc1-c1ccc(NC(=O)[C@@H](NC(=O)OC(C)(C)C)C2CCCCC2)cc1` [Example 100, tert-butyl N-[(1S)-1-cyclohexyl-2-[4-(3-methylimidazol-4-yl)anilino]-2-oxo-ethyl]carbamate]: the EC50 was > 1 µM.
As for `Cn1cncc1-c1ccc(NC(=O)[C@@H](NC(=O)OC(C)(C)C)C(c2ccccc2)c2ccccc2)cc1` [Example 101, tert-butyl N-[(1S)-1-benzhydryl-2-[4-(3-methylimidazol-4-yl)anilino]-2-oxo-ethyl]carbamate], the figure is > 1 µM; as for `Cc1n[nH]c(C)c1-c1ccc(NC(=O)[C@@H](NC(=O)c2ccnn2CCCO)C(C2CC2)C2CC2)cc1` [Example 102, N-[(1S)-1-(dicyclopropylmethyl)-2-[4-(3,5-dimethyl-1H-pyrazol-4-yl)anilino]-2-oxo-ethyl]-2-(3-hydroxypropyl)pyrazole-3-carboxamide], < 0.1 µM.
Under `Cc1n[nH]c(C)c1-c1ccc(NC(=O)[C@H](NC(=O)c2ccnn2C)C2CCCCC2)cc1` [Example 103, N-[(1R)-1-cyclohexyl-2-[4-(3,5-dimethyl-1H-pyrazol-4-yl)anilino]-2-oxo-ethyl]-2-methyl-pyrazole-3-carboxamide] stands > 1 µM; under `Cc1n[nH]c(C)c1-c1ccc(NC(=O)[C@@H](NC(=O)c2ccnn2CC(F)F)C2CCCCC2)cc1` [Example 106, N-[(1S)-1-cyclohexyl-2-[4-(3,5-dimethyl-1H-pyrazol-4-yl)anilino]-2-oxo-ethyl]-2-(2,2-difluoroethyl)pyrazole-3-carboxamide], < 0.1 µM.
On to `CCn1nccc1C(=O)N[C@H](C(=O)Nc1ccc(-c2c(C)n[nH]c2C)cc1)C(C1CC1)C1CC1` [Example 107, N-[(1S)-1-(dicyclopropylmethyl)-2-[4-(3,5-dimethyl-1H-pyrazol-4-yl)anilino]-2-oxo-ethyl]-2-ethyl-pyrazole-3-carboxamide], for which the EC50 was < 0.1 µM.
As for `Cc1n[nH]c(C)c1-c1ccc(NC(=O)[C@@H](NC(=O)c2ccnn2C2CCC2)C2CCCCC2)cc1` [Example 108, 2-cyclobutyl-N-[(1S)-1-cyclohexyl-2-[4-(3,5-dimethyl-1H-pyrazol-4-yl)anilino]-2-oxo-ethyl]pyrazole-3-carboxamide], the concentration giving a half-maximal response (EC50) is < 0.1 µM.
For `CC[C@H](C)[C@H](NC(=O)c1ccnn1CC)C(=O)Nc1ccc(-c2c(C)n[nH]c2C)cc1` [Example 109, N-[(1S,25)-1-[[4-(3,5-dimethyl-1H-pyrazol-4-yl)phenyl]carbamoyl]-2-methyl-butyl]-2-ethyl-pyrazole-3-carboxamide], the EC50 was in the range of 0.1 to 1 µM.
Under `CC[C@H](C)[C@H](NC(=O)c1ccnn1C(C)C)C(=O)Nc1ccc(-c2c(C)n[nH]c2C)cc1` [Example 110] stands 0.1 to 1 µM; under `Cc1n[nH]c(C)c1-c1ccc(NC(=O)[C@H](NC(=O)c2ccnn2C(C)C)C2CCC3(CC2)CC3)cc1` [Example 111, N-[(1R)-2-[4-(3,5-dimethyl-1H-pyrazol-4-yl)anilino]-2-oxo-1-spiro[2.5]octan-6-yl-ethyl]-2-isopropyl-pyrazole-3-carboxamide], > 1 µM.

For the origin of these results see US11377425B1, “Small molecule modulators of IL-17” (LEO Pharma A/S, priority 2018, dated 2022).
